Results as given in patent US4755508A, “Benzodiazepine analogs and use as antogonists of gastrin and cholecystokinin” (Merck & Co., Inc., priority 1987, dated 1988).
Entries after “also recorded” stand apart in the source; their conditions may differ. Like-named read-outs stand apart in the source and are kept apart here. Where a SMILES comes first, the peptide text is derived from it. [ ]: non-standard residue; d: D form. The star is where a group is joined. sY = N[C@@H](Cc1ccc(OS(=O)(=O)O)cc1)C(=O)O; Cbz = O=C(OCc1ccccc1)*; Boc = CC(C)(C)OC(=O)*

Legend:
[1] = target: T1, CCK receptor (rat pancreas membranes) (Rattus norvegicus, UniProt P30551); assay: 125I-CCK receptor binding (pancreas); conditions: for effect on the 125I-CCK receptor binding assay: added as protease inhibitor
T1 construct: The whole pancreas was dissected free of fat tissue and was homogenized; from tissue; host or cells: pancreas of male Sprague-Dawley rats (membranes)
T1 sequence (P30551 1-444): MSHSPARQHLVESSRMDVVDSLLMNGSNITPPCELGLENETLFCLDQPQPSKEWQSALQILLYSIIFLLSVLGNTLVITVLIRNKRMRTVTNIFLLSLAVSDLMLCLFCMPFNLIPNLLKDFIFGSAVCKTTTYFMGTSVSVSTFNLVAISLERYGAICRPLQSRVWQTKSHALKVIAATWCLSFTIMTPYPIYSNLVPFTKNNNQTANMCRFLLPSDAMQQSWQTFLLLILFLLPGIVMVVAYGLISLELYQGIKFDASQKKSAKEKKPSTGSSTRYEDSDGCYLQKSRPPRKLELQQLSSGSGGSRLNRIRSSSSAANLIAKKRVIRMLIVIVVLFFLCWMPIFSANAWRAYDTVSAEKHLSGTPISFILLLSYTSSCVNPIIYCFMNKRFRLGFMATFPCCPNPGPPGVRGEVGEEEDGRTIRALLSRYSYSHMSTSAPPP
Procedure: CCK-33 was radiolabeled with ^125 I-Bolton Hunter reagent (2000 Ci/mmole) as described by Sankara et al. (J. Biol. Chem. 254: 9349-9351, 1979). Receptor binding was performed according to Innis and Snyder (Proc. Natl. Acad. Sci. 77: 6917-6921, 1980) with the minor modification of adding the additional protease inhibitors, phenylmethane sulfonyl fluoride and o-phenanthroline. The latter two compounds have no effect on the ^125 I-CCK receptor binding assay.
Male Sprague-Dawley rats (200-350 g) were sacrificed by decapitation. The whole pancreas was dissected free of fat tissue and was homogenized in 20 volumes of ice-cold 50 mM, Tris HCl (pH 7.7 at 25° C.) with a Brinkmann Polytron PT 10. The homogenates were centrifuged at 48,000 g for 10 min. Pellets were resuspended in Tris Buffer, centrifuged as above and resuspended in 200 volumes of binding assay buffer (50 mM Tris HCl, pH 7.7 at 25° C., 5 mM dithiothrietol, 0.1 mM bacitracin, 1.2 mM phenylmethane sulfonyl fluoride and 0.5 mM o-phenanthroline). […] All assays were run in duplicate or triplicate. The reaction mixtures were incubated at 37° C. for 30 minutes and centrifuged in a Beckman Microfuge (4 minutes) immediately after adding 1 ml of ice-cold incubation buffer. The supernatant was aspirated and discarded, pellets were counted with a Beckman gamma 5000. For Scatchard analysis (Ann. N.Y. Acad. Sci. 51: 660, 1949), ^125 I-CCK-33 was progressively diluted with increasing concentrations of CCK-33

[2] = target: T2, CCK receptor (guinea pig cerebral cortex) (Cavia porcellus, UniProt H0VZC5); assay: 125I-CCK receptor binding (brain); conditions: 125I-CCK-33, guinea pig cerebral cortex, 25° C., 2 hours
T2 construct: Cerebral cortex was dissected and used as a receptor source; from tissue; host or cells: cerebral cortex of male Hartley guinea pigs (membranes)
Procedure: CCK-33 was radiolabeled and the binding was performed according to the description for the pancreas method with modifications according to Saito et al., J. Neurochem. 37, 483-490, 1981.
Male Hartley guinea pigs (300-500 g) were sacrificed by decapitation and the brains were removed and placed in ice-cold 50 mM, Tris HCl plus 7.58 g/l Trizma-7.4 (pH 7.4 at 25° C.). Cerebral cortex was dissected and used as a receptor source. Each gram of fresh guinea pig brain tissue was homogenized in 10 ml of Tris Trizma buffer with a Brinkman polytron PT-10. The homogenates were centrifuged at 42,000 g for 15 min. […] All assays were run in duplicate or triplicate. The reaction mixtures were incubated at 25° C. for 2 hours and centrifuged in a Beckman Microfuge (4 minutes) immediately after adding 1 ml of ice-cold incubation buffer. The supernatant was aspirated and discarded, pellets were counted with a Beckman gamma 5000.

[3] = target: T3, gastrin receptor (Cavia porcellus, UniProt H0VZC5); assay: Gastrin receptor binding in guinea pig gastric glands; conditions: guinea pig gastric mucosal glands
T3 construct: Gastric mucosa from guinea pigs (300-500 g body weight, male Hartley) were washed thoroughly and minced; from tissue; host or cells: gastric mucosal glands of male Hartley guinea pigs
Procedure: Gastrin antagonist activity of compounds of Formula I is determined using the following assay: […]
GASTRIN RECEPTOR BINDING IN GUINEA PIG GASTRIC GLANDS
Guinea pig gastric mucosal glands were prepared by the procedure of Berglingh and Obrink Acta Physiol. Scand. 96: 150 (1976) with a slight modification according to Praissman et al. C. J. Receptor Res. 3: (1983). Gastric mucosa from guinea pigs (300-500 g body weight, male Hartley) were washed thoroughly and minced with fine scissors in standard buffer consisting of the following: 130 mM NaCl, 12 mM NaHCO3, 3 mM NaH2 PO4, 3 mM Na2 HPO4, 3 mM K2 HPO4, 2 mM MgSO4, 1 mM CaCl2, 5 mM glucose and 4 mM L-glutamine, 25 mM HEPES at pH 7.4. The minced tissues were washed and then incubated in a 37° C. shaker bath for 40 minutes with the buffer containing 0.1% collagenase and 0.1% BSA and bubbled with 95% O2 and 5% CO2. The tissues were passed twice through a 5 ml glass syringe to liberate the gastric glands, and then filtered through 200 mesh nylon. The filtered glands were centrifuged at 270 g for 5 minutes and washed twice by resuspension and centrifugation.

[4] = system: CCK receptor; conditions: structure-function studies; cited from earlier work
[5] = system: gastrin; conditions: in vitro; cited from earlier work
[6] = 125I-CCK-33, rat pancreas, 37° C., 30 minutes, read-out: IC50 (uM) 125I-CCK Pancreas

T2 sequence (H0VZC5 entry or part of it): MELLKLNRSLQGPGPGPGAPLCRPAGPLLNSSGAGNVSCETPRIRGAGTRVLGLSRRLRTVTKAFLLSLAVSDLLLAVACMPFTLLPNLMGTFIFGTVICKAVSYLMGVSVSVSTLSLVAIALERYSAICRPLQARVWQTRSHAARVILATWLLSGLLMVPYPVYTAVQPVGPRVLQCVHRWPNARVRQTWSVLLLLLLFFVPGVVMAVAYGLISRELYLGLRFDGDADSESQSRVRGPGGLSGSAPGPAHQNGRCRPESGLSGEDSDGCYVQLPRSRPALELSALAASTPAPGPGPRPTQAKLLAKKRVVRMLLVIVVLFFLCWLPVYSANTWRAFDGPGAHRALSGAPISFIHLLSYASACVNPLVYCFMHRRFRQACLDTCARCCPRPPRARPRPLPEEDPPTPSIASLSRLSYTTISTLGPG
T3 sequence (H0VZC5 entry or part of it): as above

SMILES	IC50 [1, 6]	IC50 [2]	also measured
O=C(O)CNC1=Nc2ccccc2C(c2ccccc2)=NC1NC(=O)Nc1ccc(Cl)cc1 (centres unmarked) [Example 9, N-[3-(((4-Chlorophenyl)aminocarbonyl)amino)-5-phenyl-3H-1,4-benzodiazepin-2-yl]-glycine]	0.069 µM	0.11 µM	IC50 [3]: 0.032 µM
CSCC[C@H](N)C(=O)N[C@@H](CC(=O)O)C(=O)N[C@@H](Cc1ccccc1)C(N)=O [Met-Asp-Phe-NH2] (H-Met-Asp-Phe-NH2)			CCK antagonist activity [4]: can function as CCK antagonists
c1cnc2c(c1)ccc1cccnc12 [o-phenanthroline, reference compound]			effect on the 125I-CCK receptor binding assay [1]: no effect
CCOC(=O)CNC1=Nc2ccccc2C(c2ccccc2)=NC1NC(=O)Nc1ccc(Cl)cc1 (centres unmarked) [Example 10, N-[3-(((4-Chlorophenyl)aminocarbonyl)amino)-5-phenyl-3H-1,4-benzodiazepin-2-yl]-glycine ethyl ester]	1.4 µM		
CSCC[C@H](NC(=O)OC(C)(C)C)C(=O)N[C@@H](CC(=O)O)C(=O)N[C@@H](Cc1ccccc1)C(N)=O [Boc-Met-Asp-Phe-NH2] (Boc-Met-Asp-Phe-NH2)			CCK antagonist activity [4]: can function as CCK antagonists
CCCNC1=Nc2ccccc2C(c2ccccc2F)=N[C@@H]1Cc1c[nH]c2ccccc12 [Example 7, 2-Propylamino-3(R)-(3'-indolyl)methyl-5-(2-fluorophenyl)-2H-1,4-benzodiazepine]		> 100 µM	IC50 [1]: 2.7 µM
O=S(=O)(F)Cc1ccccc1 [phenylmethane sulfonyl fluoride, reference compound]			effect on the 125I-CCK receptor binding assay [1]: no effect
CCCN(CCC)C(=O)C(CCC(=O)O)NC(=O)c1ccccc1 (centres unmarked) [proglumide]			gastrin antagonist activity [5]: very weak in vitro antagonists
N#CNC1=Nc2ccccc2C(c2ccccc2F)=N[C@@H]1Cc1c[nH]c2ccccc12 [Example 6, 2-Cyanoamino-3(R)-(3'-indolyl)methyl-5-(2'-fluorophenyl)-2H-1,4-benzodiazepine]	2 µM	100 µM	
O=C(O)CNC1=Nc2ccccc2C(c2ccccc2F)=N[C@@H]1Cc1c[nH]c2ccccc12 [Example 8, 2-Carboxymethylamino-3(R)-(3'-indolyl)methyl-5-(2'-fluorophenyl)-2H-1,4-benzodiazepine]	3.6 µM	31 µM	IC50 [3]: 2.7 µM
CCCC(=O)Nc1nc2c(ncn2[C@@H]2O[C@@H]3COP(=O)(O)O[C@H]3[C@H]2OC(=O)CCC)c(=O)[nH]1 [dibutyryl cyclic GMP]			CCK antagonist activity [4]: the most potent
CCOC(=O)CNC1=Nc2ccccc2C(c2ccccc2F)=N[C@@H]1Cc1c[nH]c2ccccc12 [Example 5, 2-Ethoxycarbonylmethylamino-3(R)-(3'-indolyl)methyl-5-(2'-fluorophenyl)-2H-1,4-benzodiazepine]	23 µM	49 µM	
CNC1=Nc2ccccc2C(c2ccccc2F)=N[C@@H]1Cc1c[nH]c2ccccc12 [Example 4, 2-Methylamino-3(R)-(3'-indolyl)methyl-5-(2'-fluorophenyl)-2H-1,4-benzodiazepine]	4.5 µM	> 100 µM	IC50 [3]: 67 µM
NC1=Nc2ccccc2C(c2ccccc2F)=N[C@@H]1Cc1c[nH]c2ccccc12 [Example 3, 2-Amino-3(R)-(3'-indolyl)methyl-5-(2'-fluorophenyl)-2H-1,4-benzodiazepine]			IC50 [1]: 1.7 µM
Fc1ccccc1C1=N[C@H](Cc2c[nH]c3ccccc23)C(Nc2ccccc2)=Nc2ccccc21 [Example 1, 2-Phenylamino-3(R)-(3'-indolyl)methyl-5-(2'-fluorophenyl)-2H-1,4-benzodiazepine]	34 µM	100 µM	
CSCC[C@H](NC(=O)[C@H](Cc1ccc(OS(=O)(=O)O)cc1)NC(=O)OCc1ccccc1)C(=O)NCC(=O)N[C@@H](Cc1c[nH]c2ccccc12)C(=O)N[C@@H](CCSC)C(=O)N[C@@H](CC(=O)O)C(N)=O [Cbz-Tyr(SO3 H)-Met-Gly-Trp-Met-Asp-NH2] (Cbz-[sY]MGWMD-NH2)			CCK antagonist activity [4]: can function as CCK antagonists; also recorded: partial agonist
